Drawing on patent US9550763B2, “Heterocyclic ring and carbocyclic derivative” (Shionogi & Co., Ltd., priority 2012, dated 2017), this text covers IC50 for 44 compounds.

The target in the assay is human P2X3 receptor (Homo sapiens (Human), UniProt P56373). The assay can be described thus: Evaluation of human P2X3 receptor inhibitory activity (Test Example 1-1, FDSS 3000, 96-well, 50 nM ATP). Conditions: human P2X3 receptor in C6BU-1 cells; Test Example 1-1 (compounds I-001 to I-300). Type of assay: cell-based. Here is the method: Stably expressing cell line (C6BU-1 cell transfected with human P2X3 receptor gene (GenBank accession number Y07683) was used. The cells were seeded in a 96-well microtiter plate at a concentration of 8000 cells/well and cultured in the medium (7.0% fetal bovine serum, 7.0% horse serum, 1% antibiotic and antifungal in DMEM) for one day at 37° C. under 5% carbon dioxide atmosphere. The medium was replaced with 4 μM Fluo-3-AM solution (20 mM HEPES, 137 mM NaCl, 5.27 mM KCl, 0.9 mM MgCl2, 1.26 mM CaCl2, 5.6 mM D-glucose, 2.5 mM probenecid, 1% BSA, and 0.08% Pluronic F-127, pH 7.5) and incubated at 37° C. under 5% dioxide carbon atmosphere for one hour. The plate was washed with washing buffer (20 mM HEPES, 137 mM NaCl, 5.27 mM KCl, 0.9 mM MgCl2, 1.26 mM CaCl2, 5.6 mM D-glucose, 2.5 mM probenecid, pH7.5), and each well was added with 40 μL of this buffer. The plate was placed in High-Throughput Screening System. FDSS 3000 (Hamamatsu Photonics K.K.). Measurement of fluorescence intensity by FDSS 3000 was started, and 40 μL of DMSO solutions containing different concentrations of the test compound as prepared by dilution with dilution buffer (20 mM HEPES, 137 mM NaCl, 5.27 mM KCl, 0.9 mM MgCl2, 1.26 mM CaCl2, 5.68 mM D-glucose, 2.5 mM probenecid, 0.1% Pluronic F-127, pH7.5) were dispensed to each well through the built-in automatic dispenser. Five minutes after, 50 nM ATP solution (50 μL) prepared by dilution with the dilution buffer was dispensed through the built-in automatic dispenser, and the measurement of fluorescence intensity was continued for 4 min. For each well, the specific maximum fluorescence intensity was calculated as the ratio of the maximum fluorescence intensity after addition of the ATP solution to the fluorescence intensity at the starting of the measurement. The 50% inhibitory concentration (IC50) was calculated under the assumption that the specific maximum fluorescence intensity without test compound is 0% inhibition and that the specific maximum fluorescence intensity when the dilution buffer was added in place of ATP solution is 100% inhibition, to evaluate the inhibitory activity of the test compound. FDSS software (Hamamatsu Photonics K.K.) was used for calculation of the specific maximum fluorescence intensity. IC50 was calculated using Microsoft Excel (Microsoft Corporation) and XLfit (idbs Ltd.)
human P2X3 receptor, sequence (P56373 whole entry): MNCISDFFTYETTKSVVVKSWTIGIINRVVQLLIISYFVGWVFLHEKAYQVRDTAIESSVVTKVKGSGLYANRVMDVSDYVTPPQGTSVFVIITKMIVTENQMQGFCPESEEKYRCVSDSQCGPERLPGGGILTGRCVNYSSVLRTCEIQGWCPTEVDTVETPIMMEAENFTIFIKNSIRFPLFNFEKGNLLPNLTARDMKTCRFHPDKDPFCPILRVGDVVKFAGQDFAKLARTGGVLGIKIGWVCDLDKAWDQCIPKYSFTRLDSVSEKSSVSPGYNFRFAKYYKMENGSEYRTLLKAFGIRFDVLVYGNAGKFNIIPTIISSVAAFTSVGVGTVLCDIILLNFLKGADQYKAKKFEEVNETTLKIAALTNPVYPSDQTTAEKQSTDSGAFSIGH
The data of the compounds I-001 to I-300 are the results by the method mentioned in Test Example 1-1, and the data of the compounds I-301 to I-483 are the results by the method mentioned in Test Example 1-2.
`CCC(=O)Nc1c[nH]/c(=N\c2ccc(Oc3cncc(C)n3)cc2)n(Cc2ccc(Cl)cc2)c1=O` [Compound I-145]: the IC50 came out at 0.04 µM. `CCn1c(=O)cc(Nc2ccc(Oc3cccc(C(=O)OC)c3)cc2)n(Cc2ccc(Cl)cc2)c1=O` [Compound I-008, 1-(4-chlorobenzyl)-3-ethyl-6-[4-(3-methoxycarbonylphenoxy)phenylamino]pyrimidin-2,4(1H,3H)-dione] gave an IC50 of 0.038 µM. `C[C@@H](Cn1c(=O)cc(Nc2ccc(Oc3cccc(F)n3)cc2)n(Cc2ccc(Cl)cc2)c1=O)C(=O)O` [Compound I-120] displayed an IC50 of 0.006 µM. This IC50 is about 6.3-fold lower than that of the compound before. Turning to `NC(=O)c1c[nH]/c(=N\c2ccc(Oc3ncccc3F)cc2)n(Cc2ccc(Cl)cc2)c1=O` [Compound I-110], the IC50 was 0.027 µM. Take `O=C(Nc1cnc(Nc2ccc(Oc3cccc(F)n3)cc2)n(Cc2ccc(Cl)cc2)c1=O)C1CCOCC1` [Compound I-134]: the half-inhibitory concentration (IC50) was 0.002 µM.

`N#Cc1ccc(Oc2ccc(Nc3nc(=O)c(C(=O)NC4CCOCC4)cn3Cc3ccc(Cl)cc3)cc2)cn1` [Compound I-229] gave a concentration for half-maximal inhibition (IC50) of 0.007 µM. `O=C(NC1CCOCC1)c1cn(Cc2ccc(Cl)cc2)c(Nc2ccc(Oc3ccncc3)cc2)nc1=O` [Compound I-199] had an IC50 of 0.008 µM. On to `CCc1c[nH]/c(=N\c2ccc(Oc3cccc(C#N)n3)cc2)n(Cc2ccc(Cl)cc2)c1=O` [Compound I-129], for which it took 0.061 µM to reach half-maximal inhibition (IC50). This IC50 lies about 7.6-fold higher than the previous one. On to `CCn1c(=O)cc(Nc2ccc(Oc3ccc(C(=O)O)nn3)cc2)n(Cc2ccc(Cl)cc2)c1=O` [Compound I-174], for which the half-maximal inhibitory concentration (IC50) stood at 0.036 µM.

`O=C(O)c1c[nH]/c(=N\c2ccc(Oc3ccc(F)cn3)c(F)c2)n(Cc2ccc(Cl)cc2)c1=O` [Compound I-207] gave a 50% inhibitory concentration (IC50) of 0.252 µM. Regarding `CCn1c(=O)cc(Nc2cnc(Oc3cccc(C(N)=O)c3)cn2)n(Cc2ccc(Cl)cc2)c1=O` [Compound I-076], the IC50 is 0.432 µM. Compared with the last compound, the IC50 is about 1.7-fold higher.

In turn, `CCc1oc2ccc(/N=c3\[nH]cc(NC(=O)C4CCOCC4)c(=O)n3Cc3ccc(Cl)cn3)cc2c1C` [Compound I-262] had a concentration for half-maximal inhibition (IC50) of 0.098 µM. Under `CCOC(=O)c1cnc(Oc2ccc(Nc3ncc(C(=O)OCC)c(=O)n3Cc3ccc(Cl)cc3)cc2)s1` [Compound I-056] stands 0.013 µM.

Consider `Cc1cc(/N=c2\[nH]cc(C(N)=O)c(=O)n2Cc2ccc(Cl)cc2)ccc1Oc1cccc(F)n1` [Compound I-139], for which half-maximal inhibition (IC50) was put at 0.016 µM. Compound `CCOC(=O)c1c[nH]/c(=N\c2ccc(Oc3cccc(F)n3)cc2)n(Cc2ccc(Cl)cc2)c1=O` [Compound I-018] gave a half-inhibitory concentration (IC50) of 0.013 µM. Take `O=C(Nc1c[nH]/c(=N\c2ccc(Oc3ccon3)cc2)n(Cc2ccc(Cl)cc2)c1=O)C1CCNCC1` [Compound I-186]: the IC50 stood at 0.072 µM. For `CCOC(=O)c1cnc(Nc2ccc(Oc3cccc(C(=O)O)n3)cc2)n(Cc2ccc(Cl)cc2)c1=O` [Compound I-055] the value was 0.002 µM; for `CCc1c[nH]/c(=N\c2ccc(Oc3cncc(C(=O)O)c3)cc2)n(Cc2ccc(Cl)cc2)c1=O` [Compound I-170], 0.054 µM. For the compound `O=C(Nc1c[nH]/c(=N\c2ccc(Oc3ccon3)cc2)n(Cc2ccc(Cl)cc2)c1=O)c1ccno1` [Compound I-223], the 50% inhibitory concentration (IC50) was 0.078 µM. This IC50 and that of the compound before are within 1.5-fold of each other. With `CCc1oc2ccc(Nc3nc(=O)c(C(=O)NC(CC)CC)cn3Cc3ccc(Cl)cc3)cc2c1C` [Compound I-031], the 50% inhibitory concentration (IC50) stood at 0.054 µM. `N#Cc1cnc(Oc2ccc(/N=c3\[nH]cc(NC(=O)C4CCOCC4)c(=O)n3Cc3ccc(Cl)cc3)cc2)cn1` [Compound I-143] had a concentration for half-maximal inhibition (IC50) of 0.002 µM.

`N#Cc1ccc(Oc2ccc(Nc3nc(=O)c(C(=O)NC4CCOCC4)cn3Cc3ccc(Cl)cc3)cc2)nc1` [Compound I-228] returned a half-inhibitory concentration (IC50) of 0.01 µM. In turn, `CCn1c(=O)cc(Nc2ccc(Oc3ncc(C(N)=O)s3)cc2)n(Cc2ccc(Cl)cc2)c1=O` [Compound I-039] yielded an IC50 of less than 0.004 µM.

Consider `O=c1c(CO)c[nH]/c(=N\c2ccc(Oc3cccc(F)n3)cc2)n1Cc1ccc(Cl)cc1` [Compound I-037], for which the midpoint of inhibition, the IC50, lay at 0.034 µM. Turning to `O=C(NC1CCOCC1)c1cn(Cc2ccc(F)cc2)c(Nc2ccc(Oc3cccc(F)n3)cc2)nc1=O` [Compound I-281], it took 0.041 µM to reach half-maximal inhibition (IC50). The compound `Cc1cnc(-c2c[nH]/c(=N\c3ccc(Oc4cccc(C(=O)O)n4)cc3)n(Cc3ccc(Cl)cc3)c2=O)o1` [Compound I-290, 1-(4-chlorobenzyl)-2-[4-(6-hydroxycarbonyl-2-pyridyloxy)phenylamino]-5-(5-methyloxazol-2-yl)pyrimidin-6(1H)-one] returned an IC50 of 0.004 µM. Under `CCc1oc2ccc(Nc3ncc(NC(=O)C4CCOCC4)c(=O)n3Cc3ccc(Cl)cc3)cc2c1C` [Compound I-077] stands 0.191 µM; under `CCn1c(=O)cc(Nc2ccc(Oc3cncc(C(N)=O)c3)cc2)n(Cc2ccc(Cl)cc2)c1=O` [Compound I-001], 0.011 µM; under `CCn1c(=O)cc(Nc2ccc(Oc3cccc(C(=O)O)c3)nc2)n(Cc2ccc(Cl)cc2)c1=O` [Compound I-062], 0.049 µM.

In turn, `CC(=O)N(C)c1c[nH]/c(=N\c2ccc(Oc3cccc(C(=O)O)n3)cc2)n(Cc2ccc(Cl)cc2)c1=O` [Compound I-210] gave an IC50 of 0.017 µM. Compound `CCC(=O)Nc1c[nH]/c(=N\c2ccc(Oc3ccc(C)nn3)cc2)n(Cc2ccc(Cl)cc2)c1=O` [Compound I-146] returned a concentration for half-maximal inhibition (IC50) of 0.026 µM. In turn, `O=C(Nc1c[nH]/c(=N\c2ccc(Oc3ccon3)cc2)n(Cc2ccc(Cl)cc2)c1=O)C1CC(F)(F)C1` [Compound I-211] had a half-inhibitory concentration (IC50) of 0.015 µM. Take `CCOC(=O)c1c[nH]/c(=N\c2ccc(Oc3cccc(F)n3)c(C)c2)n(Cc2ccc(Cl)cc2)c1=O` [Compound I-112]: the IC50 stood at 0.024 µM. Consider `CCC(=O)N(C)c1c[nH]/c(=N\c2ccc(Oc3cccc(C#N)n3)cc2)n(Cc2ccc(Cl)cc2)c1=O` [Compound I-198], for which the IC50 was found to be 0.012 µM. `CCc1c[nH]/c(=N\c2ccc(Oc3cccc(C(=O)O)n3)c(C)c2)n(Cc2ccc(Cl)cc2)c1=O` [Compound I-148] returned a half-inhibitory concentration (IC50) of 0.059 µM. This IC50 is about 4.9-fold higher than that of the compound before.

As to `CC(=O)N(C)c1c[nH]/c(=N\c2ccc(Oc3cccc(C#N)n3)cc2)n(Cc2ccc(Cl)cc2)c1=O` [Compound I-197], the IC50 is 0.045 µM. Take `O=C(Nc1c[nH]/c(=N\c2ccc(Oc3ccon3)cc2)n(Cc2ccc(Cl)cc2)c1=O)C1COC1` [Compound I-184]: half-maximal inhibition (IC50) required 0.014 µM. Take `CCOC(=O)c1c[nH]/c(=N\c2ccc(Oc3ccc(C)nn3)cc2)n(Cc2ccc(Cl)cc2)c1=O` [Compound I-177]: the IC50 worked out at 0.014 µM.

For `CCc1c[nH]/c(=N\c2ccc(Oc3ncc(C(=O)O)s3)cc2)n(Cc2ccc(Cl)cc2)c1=O` [Compound I-087], inhibition was half-maximal at 0.029 µM (IC50).

`CCn1c(=O)cc(Nc2ccc(Oc3cccc(C(=O)O)n3)c(F)c2)n(Cc2ccc(Cl)cc2)c1=O` [Compound I-033]: the IC50 stood at 0.001 µM. In turn, `CCc1oc2ccc(Nc3nc(=O)c(C(=O)NC4CCOCC4)cn3Cc3ccc(Cl)cc3)cc2c1C` [Compound I-021] showed an IC50 of 0.02 µM. In the case of `CCn1c(=O)cc(Nc2ccc(Oc3ccc(C(=O)OC)cc3)cn2)n(Cc2ccc(Cl)cc2)c1=O` [Compound I-052], the IC50 amounted to 0.021 µM.

As for `Cc1ccc(Oc2ccc(/N=c3\[nH]cc(C(N)=O)c(=O)n3Cc3ccc(Cl)cc3)cc2)nn1` [Compound I-180], the IC50 is 0.021 µM.

As to `CCc1oc2ccc(Nc3ncc(NC(=O)C4CCOCC4)c(=O)n3C[C@H]3CC[C@H](C)CC3)cc2c1C` [Compound I-082], the midpoint of inhibition, the IC50, lay at 0.009 µM.

As usually defined, the IC50 is the concentration at which inhibition is half-maximal. Read a high IC50 as a need for much substance.
